Experimental data: patent publication US8471061B2 (priority 2004, dated 2013)

Columns and labels:
radish = assay: Plant activating effect, foliar application, radish; format: in vivo; conditions: 21 days, 12 seeds
Method: After 600 g of upland soil was packed in a porcelain pot of 12 cm in inner diameter, 12 grains of radish seeds were sowed therein, covered with 5 mm in depth of the soil and allowed to grow in a green house. Foliar application treatment was carried out once a day using the following application liquids. Conditions of the leaves 21 days thereafter were observed.

[1] = Test on the generation of silver chloride precipitation with silver nitrate; format: physicochemical; conditions: 0.5 g with 0.5 g of silver nitrate in 10 ml of ion exchange water, 5 minutes
Method: In 10 ml of ion exchange water, 0.5 g of 5-aminolevulinic acid phosphate and 0.5 g of silver nitrate were dissolved, the mixture was allowed to stand still for 5 minutes, and conditions of the liquid was observed. […] In this connection, 0.5 g of 5-aminolevulinic acid hydrochloride and 0.5 g of silver nitrate were dissolved in 10 ml of ion exchange water and allowed to stand still for 5 minutes, and conditions of the liquid was observed.
In 10 ml of ion exchange water, 0.5 g of 5-aminolevulinic acid nitrate and 0.5 g of silver nitrate were dissolved, the mixture was allowed to stand still for 5 minutes, and conditions of the liquid was observed.
In this connection, 0.5 g of 5-aminolevulinic acid hydrochloride and 0.5 g of silver nitrate were dissolved in 10 ml of ion exchange water and allowed to stand still for 5 minutes, and conditions of the liquid was observed.
In 10 ml of ion exchange water, 0.5 g of 5-aminolevulinic acid p-toluenesulfonate and 0.5 g of silver nitrate were dissolved, the mixture was allowed to stand still for 5 minutes, and conditions of the liquid was observed.

[2] = Degradation test by sterilization; format: physicochemical
Method: Firstly, 50 mg of 5-aminolevulinic acid p-toluenesulfonate or 5-aminolevulinic acid hydrochloride was heat sterilized (121° C., 20 minutes, 1.5 kgf/cm^2). After confirming that there is no change in weight before and after the sterilization, degree of degradation of 5-aminolevulinic acid before and after the sterilization was verified by the method described in a reference (Clin. Chem., 36/8, 1494 (1990)).

apple variety “Fuji” = assay: Coloring test of apple; format: in vivo; conditions: for Coloring of red compared with 5-aminolevulinic acid hydrochloride: in vivo
Method: The 5-aminolevulinic acid phosphate obtained in Example 1 was dissolved in ion exchange water to the predetermined concentration shown in the following table. A spreader (“Approach BI” manufactured by Maruwa Biochemical) was added to the liquid to a concentration of 0.1% by weight. The pH was adjusted using phosphoric acid.
An aqueous 5-aminolevulinic acid hydrochloride solution was prepared in the same manner, except that the above-described 5-aminolevulinic acid phosphate was changed to 5-aminolevulinic acid hydrochloride and the phosphoric acid for pH adjustment was changed to hydrochloric acid.
The thus prepared liquid was sprayed at a ratio of 2 liters per branch on three main branches where young fruits of an apple variety “Fuji” bored but not yet colored into red (September 15). About 2 months thereafter (November 6), the apples were harvested and their coloring degree was examined. A color meter CR-200 manufactured by MINOLTA CAMERA was used for the measurement of color.
The 5-aminolevulinic acid nitrate obtained in Example 16 was dissolved in ion exchange water to the predetermined concentration shown in Table 16. A spreader (“Approach BI” manufactured by Maruwa Biochemical) was added to the liquid to a concentration of 0.1% by weight. The pH was adjusted using nitric acid.
A solution was prepared in the same manner, except that the above-described 5-aminolevulinic acid nitrate was changed to 5-aminolevulinic acid hydrochloride and the nitric acid was changed to hydrochloric acid.
The 5-aminolevulinic acid p-toluenesulfonate obtained in Example 23 was dissolved in ion exchange water to the predetermined concentration shown in Table 24. A spreader (“Approach B1” manufactured by Maruwa Biochemical) was added to the liquid to a concentration of 0.1% by weight. The pH was adjusted using p-toluenesulfonic acid.
A solution was prepared in the same manner, except that the above-described 5-aminolevulinic acid p-toluenesulfonate was changed to 5-aminolevulinic acid hydrochloride and the p-toluenesulfonic acid was changed to hydrochloric acid.

[3] = Chloride ion concentration of aqueous solutions by ion chromatography; format: physicochemical; conditions: detection limit 0.1 ppm; each sample
Method: When chloride ion concentration in the aqueous 5-aminolevulinic acid phosphate solutions used in the above-described examples was measured by ion chromatography under the following conditions, it was equal to or lower than the detection limit (0.1 ppm) in each sample.
(§1) The measuring conditions are as follows; A: separation column (IonPac AS12A manufactured by Japan Dionex), B: guard column (IonPac AG12A manufactured by Japan Dionex), C: eluting solution (an aqueous solution containing Na2CO3: 3.0 mmol/l and NaHCO3: 0.5 mmol/l), D: flow rate (1.5 ml/min), E: suppressor (ASRS (recycle mode, current value 50 mA)), F: amount of introduced sample (25 μl), G: temperature of constant temperature oven (35° C.) and H: detector (electric conductivity detector).
When chloride ion concentration in the aqueous 5-aminolevulinic acid nitrate solutions used in the above-described examples was measured by ion chromatography under the following conditions, it was equal to or lower than the detection limit (0.1 ppm) in each sample.
as §1, with “follows:” for “follows;”, “consisting of” for “containing”
When chloride ion concentration in the aqueous 5-aminolevulinic acid p-toluenesulfonate solutions used in the above-described examples was measured by ion chromatography under the following conditions, it was equal to or lower than the detection limit (0.1 ppm) in each sample.

Chlorella sp. = assay: Culturing of plankton; format: cell-based; conditions: for amount of cells: OD 660 nm: 1 mM additive
Method: (§2) 5-Aminolevulinic acid nitrate was added, to a concentration of 1 mM (194 ppm), to 100 ml of a sterilized culture shown in Table 17 (components of the culture), and a Chlorella sp. was inoculated therein and cultured on a reciprocal shaker at 30° C. under aerobic and dark conditions to measure the amount of cells (OD 660).
as §2, with “acid hydrochloride” for “acid nitrate”, “mM (168” for “mM (194”, “of the” for “of a”, “and the” for “and a”
The Chlorella sp. was inoculated into 100 ml of the sterilized culture shown in Table 17 (components of the culture) and cultured on a reciprocal shaker at 30° C. under aerobic and dark conditions to measure the amount of cells (OD 660).

Structure (SMILES)	plants judged 0: Abnormality was not found on the leaf surface (radish; 1 ppm in tap water)	plants judged 1: A region discolored to yellow was found on the leaf surface (radish; 1 ppm in tap water)	plants judged 2: A necrotic region was found on the leaf surface (radish; 1 ppm in tap water)	plants judged 0: Abnormality was not found on the leaf surface (radish; 10 ppm in tap water)	plants judged 1: A region discolored to yellow was found on the leaf surface (radish; 10 ppm in tap water)	plants judged 2: A necrotic region was found on the leaf surface (radish; 10 ppm in tap water)	plants judged 0: Abnormality was not found on the leaf surface (radish; 100 ppm in tap water)	plants judged 1: A region discolored to yellow was found on the leaf surface (radish; 100 ppm in tap water)	plants judged 2: A necrotic region was found on the leaf surface (radish; 100 ppm in tap water)	generation of precipitate [1]	Coloring, L (apple variety “Fuji”; 100 ppm (pH 5.0))	Coloring, a (apple variety “Fuji”; 100 ppm (pH 5.0))	Coloring, b (apple variety “Fuji”; 100 ppm (pH 5.0))	Coloring, L (apple variety “Fuji”; 200 ppm (pH 4.9))	Coloring, a (apple variety “Fuji”; 200 ppm (pH 4.9))	Coloring, b (apple variety “Fuji”; 200 ppm (pH 4.9))	Coloring of red compared with 5-aminolevulinic acid hydrochloride (apple variety “Fuji”)	chloride ion concentration in the aqueous solutions used in the examples [3]	also measured
Cc1ccc(S(=O)(=O)O)cc1.NCC(=O)CCC(=O)O [5-aminolevulinic acid p-toluenesulfonate, 5-aminolevulinic Acid p-toluenesulfonate]	6 plants	3 plants	3 plants	5 plants	5 plants	2 plants	7 plants	4 plants	1 plant^ plants	Generation of the precipitate was not found	42.39	26.44	14.69	42.36	30.93	14.34	Coloring of red was denser	≤ 0.1 ppm	degradability by high temperature heat sterilization compared with hydrochloride [2]: lower degradability; Degradation degree (%) ([2]; 50 mg heat sterilized, 121° C., 20 minutes, 1.5 kgf/cm^2): 2.7%
NCC(=O)CCC(=O)O.O=[N+]([O-])O [5-aminolevulinic acid nitrate, 5-aminolevulinic Acid Nitrate]	5 plants	5 plants	2 plants	6 plants	5 plants	1 plant^ plants	4 plants	6 plants	2 plants	Generation of the precipitate was not found	42.41	26.51	14.46	42.47	31.00	14.72	Coloring of red was denser	≤ 0.1 ppm	effect on Chlorella culture compared with hydrochloride (Chlorella sp.): showed the same effect of 5-aminolevulinic acid hydrochloride; amount of cells: OD 660 nm (Chlorella sp.; Culture time 0 day): 1.8; amount of cells: OD 660 nm (Chlorella sp.; Culture time 1 day): 6.5; amount of cells: OD 660 nm (Chlorella sp.; Culture time 2 day): 12.6; amount of cells: OD 660 nm (Chlorella sp.; Culture time 3 day): 15.0
